Source: patent US6054137A, “Promoting epidermal renewal with phloroglucinol” (Societe L'Oreal S.A., priority 1997, dated 2000)

Tested on: normal human keratinocytes
Assay: Proliferation of normal human keratinocytes cultured as a monolayer (BrdU test; score versus epinephrine)
Assay type: cell-based
Details: at 10^-5 M; keratinocyte monolayer; 72 h
Protocol: Study of the effect of 1,3,5-trimethoxybenzene on the proliferation of normal human keratinocytes cultured as a monolayer:
The products are tested on 2nd passage normal human keratinocytes cultured in KGM medium (serum-free defined medium sold by the company Clonetics). The range of concentrations is between 10^-4 M and 10^-7 M. The products are tested twice on 2 different plates.
250 ng/ml epinephrine is employed as positive control of the proliferation.
The products are dissolved in dimethyl sulphoxide (DMSO). A 1×10^-2 M mother solution is prepared in DMSO. The following dilutions are carried out in KGM.
The keratinocytes are seeded at 6000 cells/cm^2. After culturing for 24 h, the product is applied to the cells for 72 h. The medium is replaced after treatment for 48 h.
BrdU kit (Boehringer Mannheim).
On the second day of treatment, a thymidine analogue (BrdU) is added to the culture medium overnight. This analogue makes it possible to label the cells during DNA synthesis. On the third day of treatment, the cells which have incorporated BrdU are identified with an anti-BrdU antibody.
For each product, the score (see table) is attributed as a function of the result obtained with respect to epinephrine (positive control for the proliferation).

For `COc1cc(OC)cc(OC)c1` [1,3,5-Trimethoxybenzene, 1,3,5-trimethoxybenzene], the Proliferative effect was “induces proliferation of the keratinocytes”.
